Patent publication US20160009693A1, “HERBICIDAL COMPOUNDS” (SYNGENTA LIMITED, priority 2013, published 2016)

tested on: Solanum nigrum (SOLNI); experiment: Herbicidal glasshouse test, pre-emergence, SOLNI; assay type: in vivo; details: applied at 1000 g/h, evaluated after 13 days
Method: (§1) Seeds of a variety of test species are sown in standard soil in pots (Alopecurus myosuroides (ALOMY), Setaria faberi (SETFA), Echinochloa crus-galli (ECHCG), Solanum nigrum (SOLNI), Amaranthus retoflexus (AMARE), Ipomoea hederacea (IPOHE)). After cultivation for one day (pre-emergence) or after 8 days cultivation (post-emergence) under controlled conditions in a glasshouse (at 24/16° C., day/night; 14 hours light; 65% humidity), the plants are sprayed with an aqueous spray solution derived from the formulation of the technical active ingredient in acetone / water (50:50) solution containing 0.5% Tween 20 (polyoxyethelyene sorbitan monolaurate, CAS RN 9005-64-5). […] The test plants are then grown in a glasshouse under controlled conditions in a glasshouse (at 24/16° C., day/night; 14 hours light; 65% humidity) and watered twice daily. After 13 days for pre and post-emergence, the test is evaluated for the percentage damage caused to the plant. The biological activities are shown in the following table on a five point scale (5=80-100%; 4=60-79%; 3=40-59%; 2=20-39%; 1=0-19%).

| Compound | PRE Application SOLNI, percentage damage (five point scale) |
| --- | --- |
| Cn1nnnc1NC(=O)c1nn(C)c(=O)n(-c2ccc(F)cc2Cl)c1=O [Compound 1.021] | 5 (5=80-100%) |
| Cn1nnnc1NC(=O)c1nn(C)c(=O)n(Cc2ccccc2)c1=O [Compound 1.022] | 5 (5=80-100%) |
| COCCOc1ccc(-n2c(=O)c(C(=O)Nc3nnnn3C)nn(C)c2=O)cc1 [Compound 1.023] | 5 (5=80-100%) |
| Cn1nnnc1NC(=O)c1nn(C)c(=O)n(-c2ccc(Cl)cc2)c1=O [Compound 1.024] | 5 (5=80-100%) |
| Cc1cccc(-n2c(=O)c(C(=O)Nc3nnnn3C)nn(C)c2=O)c1 [Compound 1.025] | 5 (5=80-100%) |

tested on: Solanum nigrum (SOLNI); experiment: Herbicidal glasshouse test, post-emergence, SOLNI; assay type: in vivo; details: applied at 1000 g/h, evaluated after 13 days
Method: as §1

| Compound | POST Application SOLNI, percentage damage (five point scale) |
| --- | --- |
| Cn1nnnc1NC(=O)c1nn(C)c(=O)n(-c2ccc(F)cc2Cl)c1=O [Compound 1.021] | 5 (5=80-100%) |
| Cn1nnnc1NC(=O)c1nn(C)c(=O)n(Cc2ccccc2)c1=O [Compound 1.022] | 5 (5=80-100%) |
| COCCOc1ccc(-n2c(=O)c(C(=O)Nc3nnnn3C)nn(C)c2=O)cc1 [Compound 1.023] | 5 (5=80-100%) |
| Cn1nnnc1NC(=O)c1nn(C)c(=O)n(-c2ccc(Cl)cc2)c1=O [Compound 1.024] | 5 (5=80-100%) |
| Cc1cccc(-n2c(=O)c(C(=O)Nc3nnnn3C)nn(C)c2=O)c1 [Compound 1.025] | 5 (5=80-100%) |

tested on: Echinochloa crus-galli (ECHCG); experiment: Herbicidal glasshouse test, pre-emergence, ECHCG; assay type: in vivo; details: applied at 1000 g/h, evaluated after 13 days
Method: as §1

| Compound | PRE Application ECHCG, percentage damage (five point scale) |
| --- | --- |
| Cn1nnnc1NC(=O)c1nn(C)c(=O)n(-c2ccc(F)cc2Cl)c1=O [Compound 1.021] | 5 (5=80-100%) |
| Cn1nnnc1NC(=O)c1nn(C)c(=O)n(Cc2ccccc2)c1=O [Compound 1.022] | 5 (5=80-100%) |
| COCCOc1ccc(-n2c(=O)c(C(=O)Nc3nnnn3C)nn(C)c2=O)cc1 [Compound 1.023] | 5 (5=80-100%) |
| Cn1nnnc1NC(=O)c1nn(C)c(=O)n(-c2ccc(Cl)cc2)c1=O [Compound 1.024] | 5 (5=80-100%) |
| Cc1cccc(-n2c(=O)c(C(=O)Nc3nnnn3C)nn(C)c2=O)c1 [Compound 1.025] | 5 (5=80-100%) |

tested on: Alopecurus myosuroides (ALOMY); experiment: Herbicidal glasshouse test, pre-emergence, ALOMY; assay type: in vivo; details: applied at 1000 g/h, evaluated after 13 days
Method: as §1

| Compound | PRE Application ALOMY, percentage damage (five point scale) |
| --- | --- |
| Cn1nnnc1NC(=O)c1nn(C)c(=O)n(-c2ccc(F)cc2Cl)c1=O [Compound 1.021] | 5 (5=80-100%) |
| Cn1nnnc1NC(=O)c1nn(C)c(=O)n(Cc2ccccc2)c1=O [Compound 1.022] | 5 (5=80-100%) |
| COCCOc1ccc(-n2c(=O)c(C(=O)Nc3nnnn3C)nn(C)c2=O)cc1 [Compound 1.023] | 5 (5=80-100%) |
| Cn1nnnc1NC(=O)c1nn(C)c(=O)n(-c2ccc(Cl)cc2)c1=O [Compound 1.024] | 5 (5=80-100%) |
| Cc1cccc(-n2c(=O)c(C(=O)Nc3nnnn3C)nn(C)c2=O)c1 [Compound 1.025] | 5 (5=80-100%) |

tested on: Setaria faberi (SETFA); experiment: Herbicidal glasshouse test, pre-emergence, SETFA; assay type: in vivo; details: applied at 1000 g/h, evaluated after 13 days
Method: as §1

| Compound | PRE Application SETFA, percentage damage (five point scale) |
| --- | --- |
| Cn1nnnc1NC(=O)c1nn(C)c(=O)n(-c2ccc(F)cc2Cl)c1=O [Compound 1.021] | 5 (5=80-100%) |
| Cn1nnnc1NC(=O)c1nn(C)c(=O)n(Cc2ccccc2)c1=O [Compound 1.022] | 3 (3=40-59%) |
| COCCOc1ccc(-n2c(=O)c(C(=O)Nc3nnnn3C)nn(C)c2=O)cc1 [Compound 1.023] | 5 (5=80-100%) |
| Cn1nnnc1NC(=O)c1nn(C)c(=O)n(-c2ccc(Cl)cc2)c1=O [Compound 1.024] | 5 (5=80-100%) |
| Cc1cccc(-n2c(=O)c(C(=O)Nc3nnnn3C)nn(C)c2=O)c1 [Compound 1.025] | 5 (5=80-100%) |

tested on: Alopecurus myosuroides (ALOMY); experiment: Herbicidal glasshouse test, post-emergence, ALOMY; assay type: in vivo; details: applied at 1000 g/h, evaluated after 13 days
Method: as §1

| Compound | POST Application ALOMY, percentage damage (five point scale) |
| --- | --- |
| Cn1nnnc1NC(=O)c1nn(C)c(=O)n(-c2ccc(F)cc2Cl)c1=O [Compound 1.021] | 5 (5=80-100%) |
| Cn1nnnc1NC(=O)c1nn(C)c(=O)n(Cc2ccccc2)c1=O [Compound 1.022] | 4 (4=60-79%) |
| COCCOc1ccc(-n2c(=O)c(C(=O)Nc3nnnn3C)nn(C)c2=O)cc1 [Compound 1.023] | 5 (5=80-100%) |
| Cn1nnnc1NC(=O)c1nn(C)c(=O)n(-c2ccc(Cl)cc2)c1=O [Compound 1.024] | 5 (5=80-100%) |
| Cc1cccc(-n2c(=O)c(C(=O)Nc3nnnn3C)nn(C)c2=O)c1 [Compound 1.025] | 5 (5=80-100%) |

tested on: Ipomoea hederacea (IPOHE); experiment: Herbicidal glasshouse test, post-emergence, IPOHE; assay type: in vivo; details: applied at 1000 g/h, evaluated after 13 days
Method: as §1

| Compound | POST Application IPOHE, percentage damage (five point scale) |
| --- | --- |
| Cn1nnnc1NC(=O)c1nn(C)c(=O)n(-c2ccc(F)cc2Cl)c1=O [Compound 1.021] | 5 (5=80-100%) |
| Cn1nnnc1NC(=O)c1nn(C)c(=O)n(Cc2ccccc2)c1=O [Compound 1.022] | 5 (5=80-100%) |
| COCCOc1ccc(-n2c(=O)c(C(=O)Nc3nnnn3C)nn(C)c2=O)cc1 [Compound 1.023] | 5 (5=80-100%) |
| Cn1nnnc1NC(=O)c1nn(C)c(=O)n(-c2ccc(Cl)cc2)c1=O [Compound 1.024] | 5 (5=80-100%) |
| Cc1cccc(-n2c(=O)c(C(=O)Nc3nnnn3C)nn(C)c2=O)c1 [Compound 1.025] | 5 (5=80-100%) |

tested on: Amaranthus retoflexus (AMARE); experiment: Herbicidal glasshouse test, pre-emergence, AMARE; assay type: in vivo; details: applied at 1000 g/h, evaluated after 13 days
Method: as §1

| Compound | PRE Application AMARE, percentage damage (five point scale) |
| --- | --- |
| Cn1nnnc1NC(=O)c1nn(C)c(=O)n(-c2ccc(F)cc2Cl)c1=O [Compound 1.021] | 5 (5=80-100%) |
| Cn1nnnc1NC(=O)c1nn(C)c(=O)n(Cc2ccccc2)c1=O [Compound 1.022] | 5 (5=80-100%) |
| COCCOc1ccc(-n2c(=O)c(C(=O)Nc3nnnn3C)nn(C)c2=O)cc1 [Compound 1.023] | 5 (5=80-100%) |
| Cn1nnnc1NC(=O)c1nn(C)c(=O)n(-c2ccc(Cl)cc2)c1=O [Compound 1.024] | 5 (5=80-100%) |
| Cc1cccc(-n2c(=O)c(C(=O)Nc3nnnn3C)nn(C)c2=O)c1 [Compound 1.025] | 5 (5=80-100%) |

tested on: Echinochloa crus-galli (ECHCG); experiment: Herbicidal glasshouse test, post-emergence, ECHCG; assay type: in vivo; details: applied at 1000 g/h, evaluated after 13 days
Method: as §1

| Compound | POST Application ECHCG, percentage damage (five point scale) |
| --- | --- |
| Cn1nnnc1NC(=O)c1nn(C)c(=O)n(-c2ccc(F)cc2Cl)c1=O [Compound 1.021] | 5 (5=80-100%) |
| Cn1nnnc1NC(=O)c1nn(C)c(=O)n(Cc2ccccc2)c1=O [Compound 1.022] | 5 (5=80-100%) |
| COCCOc1ccc(-n2c(=O)c(C(=O)Nc3nnnn3C)nn(C)c2=O)cc1 [Compound 1.023] | 5 (5=80-100%) |
| Cn1nnnc1NC(=O)c1nn(C)c(=O)n(-c2ccc(Cl)cc2)c1=O [Compound 1.024] | 5 (5=80-100%) |
| Cc1cccc(-n2c(=O)c(C(=O)Nc3nnnn3C)nn(C)c2=O)c1 [Compound 1.025] | 5 (5=80-100%) |

tested on: Amaranthus retoflexus (AMARE); experiment: Herbicidal glasshouse test, post-emergence, AMARE; assay type: in vivo; details: applied at 1000 g/h, evaluated after 13 days
Method: as §1

| Compound | POST Application AMARE, percentage damage (five point scale) |
| --- | --- |
| Cn1nnnc1NC(=O)c1nn(C)c(=O)n(-c2ccc(F)cc2Cl)c1=O [Compound 1.021] | 5 (5=80-100%) |
| Cn1nnnc1NC(=O)c1nn(C)c(=O)n(Cc2ccccc2)c1=O [Compound 1.022] | 5 (5=80-100%) |
| COCCOc1ccc(-n2c(=O)c(C(=O)Nc3nnnn3C)nn(C)c2=O)cc1 [Compound 1.023] | 5 (5=80-100%) |
| Cn1nnnc1NC(=O)c1nn(C)c(=O)n(-c2ccc(Cl)cc2)c1=O [Compound 1.024] | 5 (5=80-100%) |
| Cc1cccc(-n2c(=O)c(C(=O)Nc3nnnn3C)nn(C)c2=O)c1 [Compound 1.025] | 5 (5=80-100%) |

tested on: Ipomoea hederacea (IPOHE); experiment: Herbicidal glasshouse test, pre-emergence, IPOHE; assay type: in vivo; details: applied at 1000 g/h, evaluated after 13 days
Method: as §1

| Compound | PRE Application IPOHE, percentage damage (five point scale) |
| --- | --- |
| Cn1nnnc1NC(=O)c1nn(C)c(=O)n(-c2ccc(F)cc2Cl)c1=O [Compound 1.021] | 5 (5=80-100%) |
| Cn1nnnc1NC(=O)c1nn(C)c(=O)n(Cc2ccccc2)c1=O [Compound 1.022] | 4 (4=60-79%) |
| COCCOc1ccc(-n2c(=O)c(C(=O)Nc3nnnn3C)nn(C)c2=O)cc1 [Compound 1.023] | 5 (5=80-100%) |
| Cn1nnnc1NC(=O)c1nn(C)c(=O)n(-c2ccc(Cl)cc2)c1=O [Compound 1.024] | 5 (5=80-100%) |
| Cc1cccc(-n2c(=O)c(C(=O)Nc3nnnn3C)nn(C)c2=O)c1 [Compound 1.025] | 5 (5=80-100%) |

tested on: Setaria faberi (SETFA); experiment: Herbicidal glasshouse test, post-emergence, SETFA; assay type: in vivo; details: applied at 1000 g/h, evaluated after 13 days
Method: as §1

| Compound | POST Application SETFA, percentage damage (five point scale) |
| --- | --- |
| Cn1nnnc1NC(=O)c1nn(C)c(=O)n(-c2ccc(F)cc2Cl)c1=O [Compound 1.021] | 5 (5=80-100%) |
| Cn1nnnc1NC(=O)c1nn(C)c(=O)n(Cc2ccccc2)c1=O [Compound 1.022] | 4 (4=60-79%) |
| COCCOc1ccc(-n2c(=O)c(C(=O)Nc3nnnn3C)nn(C)c2=O)cc1 [Compound 1.023] | 5 (5=80-100%) |
| Cn1nnnc1NC(=O)c1nn(C)c(=O)n(-c2ccc(Cl)cc2)c1=O [Compound 1.024] | 5 (5=80-100%) |
| Cc1cccc(-n2c(=O)c(C(=O)Nc3nnnn3C)nn(C)c2=O)c1 [Compound 1.025] | 5 (5=80-100%) |
